Test results reported in patent publication US9707233B2, “Heterocyclylamines as PI3K inhibitors” (Incyte Corporation, priority 2011, dated 2017).

Biological target: PI3Kδ (p110δ/p85α) (Homo sapiens (Human), UniProt O00329)
Assay: PI3Kδ scintillation proximity assay (Example A3)
Assay type: biochemical
Conditions: 20 μM ATP, 20 μM PIP2, 4 nM PI3Kδ; read-out: PI3Kδ SPA IC50
Method in brief: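 Human PI3Kδ (p110δ/p85α, 4 nM) with 20 μM PIP2 and 20 μM ATP plus [γ-33P]ATP in 20 mM MOPS pH 6.7, 10 mM MgCl2, 5 mM DTT, 0.03% CHAPS, 0.5% DMSO, room temperature. Reaction stopped with EDTA/excess ATP; product captured on WGA SPA beads and counted. IC50 from percent control activity vs log inhibitor.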

PI3Kδ (p110δ/p85α), sequence (O00329 whole entry): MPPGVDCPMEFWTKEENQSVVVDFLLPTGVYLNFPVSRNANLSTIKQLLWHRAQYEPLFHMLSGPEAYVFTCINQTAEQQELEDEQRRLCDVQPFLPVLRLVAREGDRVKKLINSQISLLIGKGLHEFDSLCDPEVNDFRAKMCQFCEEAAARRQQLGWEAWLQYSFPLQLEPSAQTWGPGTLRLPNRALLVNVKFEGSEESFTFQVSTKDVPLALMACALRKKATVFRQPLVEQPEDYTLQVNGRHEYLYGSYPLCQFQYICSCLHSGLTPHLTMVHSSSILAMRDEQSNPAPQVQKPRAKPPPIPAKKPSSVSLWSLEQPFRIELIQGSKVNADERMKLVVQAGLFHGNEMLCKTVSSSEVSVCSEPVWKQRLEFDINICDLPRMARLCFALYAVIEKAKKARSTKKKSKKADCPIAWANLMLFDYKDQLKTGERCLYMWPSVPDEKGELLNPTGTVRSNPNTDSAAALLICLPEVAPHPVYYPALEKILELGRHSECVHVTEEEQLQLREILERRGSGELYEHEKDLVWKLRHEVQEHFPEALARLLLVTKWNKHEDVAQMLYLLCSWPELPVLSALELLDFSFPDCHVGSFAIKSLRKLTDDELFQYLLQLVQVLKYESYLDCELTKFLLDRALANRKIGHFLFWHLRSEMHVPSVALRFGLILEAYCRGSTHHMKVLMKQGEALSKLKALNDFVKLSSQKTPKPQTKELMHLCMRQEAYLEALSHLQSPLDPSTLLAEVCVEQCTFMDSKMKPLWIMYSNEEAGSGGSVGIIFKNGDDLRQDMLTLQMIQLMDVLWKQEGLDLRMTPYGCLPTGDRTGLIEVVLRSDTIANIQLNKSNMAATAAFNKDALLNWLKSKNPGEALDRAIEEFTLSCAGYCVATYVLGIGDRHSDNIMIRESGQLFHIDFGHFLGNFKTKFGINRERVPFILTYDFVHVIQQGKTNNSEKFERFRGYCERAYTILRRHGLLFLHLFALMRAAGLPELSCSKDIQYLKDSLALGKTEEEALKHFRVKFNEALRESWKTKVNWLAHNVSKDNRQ
PI3Kδ (p110δ/p85α), sequence (P27986 whole entry partner): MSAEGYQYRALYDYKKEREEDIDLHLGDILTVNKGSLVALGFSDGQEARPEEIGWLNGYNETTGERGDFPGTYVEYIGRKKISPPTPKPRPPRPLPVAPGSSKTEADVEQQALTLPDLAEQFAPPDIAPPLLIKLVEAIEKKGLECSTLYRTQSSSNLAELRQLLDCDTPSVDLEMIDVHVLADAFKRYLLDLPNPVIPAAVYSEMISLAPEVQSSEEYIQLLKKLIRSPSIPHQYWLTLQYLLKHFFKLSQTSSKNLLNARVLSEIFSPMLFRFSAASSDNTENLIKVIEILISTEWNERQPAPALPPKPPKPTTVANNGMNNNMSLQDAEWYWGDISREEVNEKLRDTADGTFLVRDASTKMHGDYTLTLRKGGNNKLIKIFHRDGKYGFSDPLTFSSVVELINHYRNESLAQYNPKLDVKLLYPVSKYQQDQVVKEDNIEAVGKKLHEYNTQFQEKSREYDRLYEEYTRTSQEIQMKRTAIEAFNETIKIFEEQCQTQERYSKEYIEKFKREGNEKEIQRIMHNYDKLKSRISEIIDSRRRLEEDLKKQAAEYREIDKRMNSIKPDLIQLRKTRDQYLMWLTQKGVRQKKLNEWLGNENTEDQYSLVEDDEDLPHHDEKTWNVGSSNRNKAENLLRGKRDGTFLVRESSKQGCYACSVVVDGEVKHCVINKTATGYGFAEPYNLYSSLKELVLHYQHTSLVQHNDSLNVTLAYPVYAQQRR

| Structure (SMILES) | IC50 [nM] |
| --- | --- |
| COc1c(C(C)n2nc(C)c3c(N)ncnc32)cc(Cl)c(Cl)c1C1CN(C(C)C)C1 (single isomer, unassigned) [Example 299, 1-{1-[4,5-Dichloro-3-(1-isopropylazetidin-3-yl)-2-methoxyphenyl]ethyl}-3-methyl-1H-pyrazolo[3,4-d]pyrimidin-4-amine] | ≤ 10 |
| COc1c(C(C)n2nc(C)c3c(N)ncnc32)cc(Cl)c(Cl)c1C1CN(CCO)C1 (single isomer, unassigned) [Example 300, 2-(3-{3-[1-(4-Amino-3-methyl-1H-pyrazolo[3,4-d]pyrimidin-1-yl)ethyl]-5,6-dichloro-2-methoxyphenyl}azetidin-1-yl)ethano] | ≤ 10 |
| COc1c(C(C)n2nc(C)c3c(N)ncnc32)cc(Cl)c(Cl)c1C1CN(CC(C)(C)O)C1 (single isomer, unassigned) [Example 303, 1-(3-{3-[1-(4-Amino-3-methyl-1H-pyrazolo[3,4-d]pyrimidin-1-yl)ethyl]-5,6-dichloro-2-methoxyphenyl}azetidin-1-yl)-2-methylpropan-2-ol] | ≤ 10 |
| COc1c(C(C)n2nc(C)c3c(N)ncnc32)cc(Cl)c(Cl)c1C1CN(C2COC2)C1 (single isomer, unassigned) [Example 304, 1-{1-[4,5-Dichloro-2-methoxy-3-(1-oxetan-3-ylazetidin-3-yl)phenyl]ethyl}-3-methyl-1H-pyrazolo[3,4-d]pyrimidin-4-amine] | ≤ 10 |
| COc1c(C(C)n2nc(C)c3c(N)ncnc32)cc(Cl)c(Cl)c1C1CN(CC#N)C1 (single isomer, unassigned) [Example 305, (3-{3-[1-(4-Amino-3-methyl-1H-pyrazolo[3,4-d]pyrimidin-1-yl)ethyl]-5,6-dichloro-2-methoxyphenyl}azetidin-1-yl)acetonitrile] | ≤ 10 |
| COc1c(C(C)n2nc(C)c3c(N)ncnc32)cc(Cl)c(Cl)c1C1CN(C(C)=O)C1 (single isomer, unassigned) [Example 306, 1-{1-[3-(1-Acetylazetidin-3-yl)-4,5-dichloro-2-methoxyphenyl]ethyl}-3-methyl-1H-pyrazolo[3,4-d]pyrimidin-4-amine] | ≤ 10 |
| CCOc1c(C(C)n2nc(C)c3c(N)ncnc32)cc(Cl)c(C)c1C1CNC(=O)C1 (single isomer, unassigned) [Example 310, 4-{3-[1-(4-amino-3-methyl-1H-pyrazolo[3,4-d]pyrimidin-1-yl)ethyl]-5-chloro-2-ethoxy-6-methylphenyl}pyrrolidin-2-one] | ≤ 10 |
| CCOc1c(C(C)n2nc(C)c3c(N)ncnc32)cc(Cl)c(C)c1C1CNC(=O)C1 (single isomer, unassigned) [Example 311, 4-{3-[1-(4-amino-3-methyl-1H-pyrazolo[3,4-d]pyrimidin-1-yl)ethyl]-5-chloro-2-ethoxy-6-methylphenyl}pyrrolidin-2-one] | ≤ 10 |
| CCOc1c(C(C)n2nc(C)c3c(N)ncnc32)cc(C)c(C#N)c1C1CN(CC(C)(C)O)C1 (single isomer, unassigned) [Example 321, 4-[1-(4-amino-3-methyl-1H-pyrazolo[3,4-d]pyrimidin-1-yl)ethyl]-3-ethoxy-2-[1-(2-hydroxy-2-methylpropyl)azetidin-3-yl]-6-methylbenzonitrile] | ≤ 10 |
| CCOc1c(C(C)n2nc(C)c3c(N)ncnc32)cc(C)c(C#N)c1C1CN(C(=O)C(C)(C)O)C1 (single isomer, unassigned) [Example 322, 4-[1-(4-amino-3-methyl-1H-pyrazolo[3,4-d]pyrimidin-1-yl)ethyl]-3-ethoxy-2-[1-(2-hydroxy-2-methylpropanoyl)azetidin-3-yl]-6-methylbenzonitrile] | ≤ 10 |
| CCOc1c(C(C)n2nc(C)c3c(N)ncnc32)cc(C)c(C#N)c1C1CN(CCO)C1 (single isomer, unassigned) [Example 327, 4-[-1-(4-amino-3-methyl-1H-pyrazolo[3,4-d]pyrimidin-1-yl)ethyl]-3-ethoxy-2-[1-(2-hydroxyethyl)azetidin-3-yl]-6-methylbenzonitrile] | ≤ 10 |
